From EP1247803A2, “Indolinone compounds suitable for modulation of protein kinases” (Sugen, Inc., priority 1996, dated 1998)

Tests used:
[1] = molecular target: T1, FLK-1 receptor (Mus musculus, UniProt P35918); assay: FLK-1 ELISA (kinase activity of the FLK-1 receptor in FLK-1/NIH3T3 cells, VEGF stimulated); format: cell-based; parameters: concentration or dose not given beside the values
T1 construct: expressed in transfected cells; host or cells: NIH3T3 C7#3
Description: An enzyme linked immunosorbent assay (ELISA) was conducted to measure the catalytic activity of the FLK-1 receptor and more specifically, the inhibition or activation of indolinone compounds on the catalytic activity of the FLK-1 receptor. Specifically, the following assay was conducted to measure catalytic activity of the FLK-1 receptor in FLK-1/NIH3T3 cells.
The materials and protocol for the FLK-1 ELISA assay are as described in International Patent Publication No. WO 96/40116, published December 19, 1996 by Tang et al.
Selected compounds were tested in the FLK-1 ELISA assay.
An ELISA assay was conducted to measure the kinase activity of the FLK-1 receptor and more specifically, the inhibition or activation of protein tyrosine kinase activity on the FLK-1 receptor. Specifically, the following assay was conducted to measure kinase activity of the FLK-1 receptor in FLK-1/NIH3T3 cells.
Materials. The following reagents and supplies were used: • a. […] Cappel goat anti-rabbit IgG (catalog no. 55641); • c. PBS (Gibco Catalog No. 450-1300EB); • d. TBSW Buffer (50 mM Tris (pH 7.2), 150 mM NaCl and 0.1% Tween-20); • e. Ethanolamine stock (10% ethanolamine (pH 7.0), stored at 4°C); • f. HNTG buffer (20mM HEPES buffer (pH 7.5), 150mM NaCl, 0.2% Triton X-100, and 10% glycerol); • g. EDTA (0.5 M (pH 7.0) as a 100X stock); • h. Sodium ortho vanadate (0.5 M as a 100X stock); • i. Sodium pyro phosphate (0.2M as a 100X stock); • j. NUNC 96 well V bottom polypropylene plates (Applied Scientific Catalog No. AS-72092); • k. NIH3T3 C7#3 Cells (FLK-1 expressing cells); • l. DMEM with 1X high glucose L Glutamine (catalog No. 11965-050); • m. FBS, Gibco (catalog no. 16000-028); • n. L-glutamine, Gibco (catalog no. 25030-016); • o. VEGF, PeproTech, Inc. (catalog no. 100-20)(kept as 1 µg/100 µl stock in Milli-Q dH2O and stored at -20°C; • p. Affinity purified anti-FLK-1 antiserum which can be obtained or purified as follows: • 1. Prepare a Tresyl-Activated Agarose/Flk-1-D column by incubating 10 ml of Tresyl-Activated Agarose with 20 mg of purified GST-Flk-1-D fusion protein in 100mM sodium bicarbonate (pH 9.6) buffer overnight at 4 °C. • 2. Wash the column once with PBS. • 3. Block the excess sites on the column with 2 M glycine for 2 hours at 4°C. • 4. Wash the column with PBS. • 5. Incubate the column with Rabbit anti-Flk-1D production bleed for 2 hours at 4 °C. • 6. Wash the column with PBS. • 7. Elute antiserum with 100 mM Citric Acid, pH3.0 and neutralize the eluate immediately with 2 M Tris, pH 9.0. • 8. Dialyize the eluate against PBS overnight at 4 °C with 3 changes of buffer (sample to buffer ratio is 1:100). • 9. Adjust the dialyized antiserum to 5% glycerol and store at -80 °C in small aliquotes. • q.
Protocol. The following protocol was used for conducting the assay: • 1. Coat Corning 96-well elisa plates with 1.0µg per well Cappel Anti-rabbit IgG antibody in 0.1M Na2CO3 pH 9.6. Bring final volume to 150 µl per well. Coat plates overnight at 4°C. Plates can be kept up to two weeks when stored at 4°C. • 2. Grow cells in Growth media(DMEM, supplemental with 2.0mM L-Glutamine, 10% FBS) in suitable culture dishes until confluent at 37°C, 5% CO2. • 3. Harvest cells by trypsinization and seed in Corning 25850 polystyrene 96-well roundbottom cell plates, 25.000 cells/well in 200µl of growth media. • 4. Grow cells at least one day at 37°C, 5% CO2. • 5. Wash cells with D-PBS 1X. • 6. Add 200µl/well of starvation media (DMEM, 2.0mM 1-Glutamine, 0.1% FBS). Incubate overnight at 37°C, 5% CO2. • 7. Dilute Compounds/Extracts 1:20 in polypropylene 96 well plates using starvation media. Dilute dimethylsulfoxide 1:20 for use in control wells. • 8. Remove starvation media from 96 well cell culture plates and add 162 µl of fresh starvation media to each well. • 9. Add 18µl of 1:20 diluted Compound/Extract dilution (from step 7) to each well plus the 1:20 dimethylsulfoxide dilution to the control wells (+/- VEGF), for a final dilution of 1:200 after cell stimulation. […]

[2] = molecular target: PDGF-R (Homo sapiens, UniProt P09619); assay: PDGF-R ELISA; format: cell-based
Description: A PDGF-R ELISA is described in International Patent Publication No. WO 96/40116, published December 19, 1996 by Tang et al.

Sequence of PDGF-R (P09619 33-1106, species assumed): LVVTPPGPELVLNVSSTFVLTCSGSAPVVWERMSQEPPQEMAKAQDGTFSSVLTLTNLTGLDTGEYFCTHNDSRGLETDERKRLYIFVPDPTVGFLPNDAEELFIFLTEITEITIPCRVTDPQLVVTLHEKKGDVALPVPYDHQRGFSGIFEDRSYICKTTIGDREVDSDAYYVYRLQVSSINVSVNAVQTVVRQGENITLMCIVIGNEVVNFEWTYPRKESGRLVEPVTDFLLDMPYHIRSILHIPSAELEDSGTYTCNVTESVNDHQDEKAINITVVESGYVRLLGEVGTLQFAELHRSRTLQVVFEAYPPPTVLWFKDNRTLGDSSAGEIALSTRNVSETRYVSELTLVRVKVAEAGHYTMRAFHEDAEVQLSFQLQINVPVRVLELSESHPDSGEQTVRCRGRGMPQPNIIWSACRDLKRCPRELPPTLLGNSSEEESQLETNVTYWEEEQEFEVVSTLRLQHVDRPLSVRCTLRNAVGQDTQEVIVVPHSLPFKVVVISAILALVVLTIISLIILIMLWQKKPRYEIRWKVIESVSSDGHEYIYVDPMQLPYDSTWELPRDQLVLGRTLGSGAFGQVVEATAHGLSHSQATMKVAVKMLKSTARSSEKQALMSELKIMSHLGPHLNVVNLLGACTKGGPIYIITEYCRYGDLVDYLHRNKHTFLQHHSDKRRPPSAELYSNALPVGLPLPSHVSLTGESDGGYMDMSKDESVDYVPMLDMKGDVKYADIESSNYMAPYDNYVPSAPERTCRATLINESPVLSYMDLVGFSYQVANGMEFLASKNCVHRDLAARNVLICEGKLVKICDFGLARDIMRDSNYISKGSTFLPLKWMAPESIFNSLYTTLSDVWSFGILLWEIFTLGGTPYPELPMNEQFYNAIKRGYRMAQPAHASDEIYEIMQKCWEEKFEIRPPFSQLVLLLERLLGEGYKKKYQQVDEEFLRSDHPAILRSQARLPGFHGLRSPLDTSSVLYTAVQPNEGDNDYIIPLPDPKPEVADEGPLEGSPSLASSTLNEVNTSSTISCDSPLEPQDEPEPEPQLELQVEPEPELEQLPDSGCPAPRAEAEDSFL
T1 sequence (P35918 20-1345): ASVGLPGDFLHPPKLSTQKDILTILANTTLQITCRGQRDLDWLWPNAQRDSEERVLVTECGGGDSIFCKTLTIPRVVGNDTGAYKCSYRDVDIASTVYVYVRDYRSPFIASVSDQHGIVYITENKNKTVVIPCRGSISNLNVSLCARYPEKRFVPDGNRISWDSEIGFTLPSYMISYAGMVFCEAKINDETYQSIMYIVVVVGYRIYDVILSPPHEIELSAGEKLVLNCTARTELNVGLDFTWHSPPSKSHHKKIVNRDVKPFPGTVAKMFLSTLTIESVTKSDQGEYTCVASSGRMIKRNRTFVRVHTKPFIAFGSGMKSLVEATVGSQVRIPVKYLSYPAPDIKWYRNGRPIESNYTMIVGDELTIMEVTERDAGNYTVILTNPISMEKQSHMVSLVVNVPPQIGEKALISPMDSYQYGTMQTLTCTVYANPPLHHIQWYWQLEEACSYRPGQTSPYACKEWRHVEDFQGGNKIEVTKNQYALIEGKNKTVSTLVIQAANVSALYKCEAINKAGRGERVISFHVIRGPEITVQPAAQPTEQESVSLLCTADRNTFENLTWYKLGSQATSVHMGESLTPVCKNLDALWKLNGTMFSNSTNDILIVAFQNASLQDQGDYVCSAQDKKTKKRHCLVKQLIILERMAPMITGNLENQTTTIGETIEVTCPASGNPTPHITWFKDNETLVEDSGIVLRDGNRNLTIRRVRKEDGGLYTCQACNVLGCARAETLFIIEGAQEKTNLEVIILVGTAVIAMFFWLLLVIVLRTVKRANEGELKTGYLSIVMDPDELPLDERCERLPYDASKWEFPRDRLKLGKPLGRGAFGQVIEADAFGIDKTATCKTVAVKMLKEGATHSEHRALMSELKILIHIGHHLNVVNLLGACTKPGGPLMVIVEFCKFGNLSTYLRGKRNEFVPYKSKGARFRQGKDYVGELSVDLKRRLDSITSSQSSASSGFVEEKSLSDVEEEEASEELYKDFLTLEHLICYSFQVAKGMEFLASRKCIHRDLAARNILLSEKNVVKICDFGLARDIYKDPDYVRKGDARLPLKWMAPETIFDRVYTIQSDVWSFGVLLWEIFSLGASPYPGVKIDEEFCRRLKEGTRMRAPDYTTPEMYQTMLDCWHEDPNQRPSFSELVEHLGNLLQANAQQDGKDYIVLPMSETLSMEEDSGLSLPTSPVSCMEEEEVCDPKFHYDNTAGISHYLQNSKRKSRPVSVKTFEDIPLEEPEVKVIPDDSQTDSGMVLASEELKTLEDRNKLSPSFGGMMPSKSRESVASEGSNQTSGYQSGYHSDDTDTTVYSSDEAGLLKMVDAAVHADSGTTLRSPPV

| Compound | Fik Kinase %Inhibition [1] | PDGF Kinase %Inhibition [2] |
| --- | --- | --- |
| CN1C(=O)C(=C2C(=O)Nc3ccc(CCCl)cc32)c2ccccc21 [10731/G10] | -9.0% | 5.6% |
| O=C1Nc2c(Br)cc(Br)cc2C1=CC(c1cccs1)C(F)(F)F (centres unmarked) [10732/A02] | -12.5% | 10.8% |
| COc1c(C(C)C)cc(C=C2C(=O)Nc3c(Br)cc(Br)cc32)cc1C(C)C [10732/A03] | -9.9% | -3.8% |
| CC(C)c1cc(C=C2C(=O)Nc3c(Br)cc(Br)cc32)cc(C(C)C)c1Oc1ccccc1 [10732/A04] | -14.1% | -9.4% |
| COc1ccc(C=C2C(=O)Nc3c(Br)cc(Br)cc32)cc1C(C)(C)C [10732/A05] | -3.9% | -12.9% |
| CC(C)(C)c1cc(C=C2C(=O)Nc3c(Br)cc(Br)cc32)ccc1OCc1ccccc1 [10732/A06] | -0.0% | 12.3% |
| COc1c(Br)cc(C=C2C(=O)Nc3c(Br)cc(Br)cc32)cc1C(C)(C)C [10732/A07] | -19.8% | 0.7% |
| CC(C)(C)c1cc(C=C2C(=O)Nc3c(Br)cc(Br)cc32)cc(Br)c1OCc1ccccc1 [10732/A08] | -10.0% | 31.0% |
| COc1c(Cl)cc(C=C2C(=O)Nc3c(Br)cc(Br)cc32)cc1C(C)(C)C [10732/A09] | -11.2% | 8.8% |
| CC(C)(C)c1cc(C=C2C(=O)Nc3c(Br)cc(Br)cc32)cc(Cl)c1OCc1ccccc1 [10732/A10] | 10.2% | 7.3% |
| COc1c(I)cc(C=C2C(=O)Nc3c(Br)cc(Br)cc32)cc1C(C)(C)C [10732/A11] | -0.6% | 40.1% |
| O=C1Nc2ccc(I)cc2C1=CC(c1cccs1)C(F)(F)F (centres unmarked) [10732/B02] | 2.9% | 23.5% |
| COc1c(C(C)C)cc(C=C2C(=O)Nc3ccc(I)cc32)cc1C(C)C [10732/B03] | 8.2% | 17.4% |
| CC(C)c1cc(C=C2C(=O)Nc3ccc(I)cc32)cc(C(C)C)c1Oc1ccccc1 [10732/B04] | -1.3% | 16.9% |
| COc1ccc(C=C2C(=O)Nc3ccc(I)cc32)cc1C(C)(C)C [10732/B05] | 2.8% | 21.9% |
| CC(C)(C)c1cc(C=C2C(=O)Nc3ccc(I)cc32)ccc1OCc1ccccc1 [10732/B06] | 8.1% | -12.4% |
| COc1c(Br)cc(C=C2C(=O)Nc3ccc(I)cc32)cc1C(C)(C)C [10732/B07] | 1.6% | 21.4% |
| CC(C)(C)c1cc(C=C2C(=O)Nc3ccc(I)cc32)cc(Br)c1OCc1ccccc1 [10732/B08] | 8.0% | 16.9% |
| COc1c(Cl)cc(C=C2C(=O)Nc3ccc(I)cc32)cc1C(C)(C)C [10732/B09] | 14.0% | 18.4% |
| CC(C)(C)c1cc(C=C2C(=O)Nc3ccc(I)cc32)cc(Cl)c1OCc1ccccc1 [10732/B10] | 12.1% | 0.7% |

| Compound | Fik Kinase %Inhibition [1] | PDGF Kinase %Inhibition [2] |
| --- | --- | --- |
| COc1c(I)cc(C=C2C(=O)Nc3ccc(I)cc32)cc1C(C)(C)C [10732/B11] | 9.0% | 70.9% |
| Cc1c(Br)ccc2c1C(=CC(c1cccs1)C(F)(F)F)C(=O)N2 (centres unmarked) [10732/C02] | 11.9% | 7.3% |
| COc1c(C(C)C)cc(C=C2C(=O)Nc3ccc(Br)c(C)c32)cc1C(C)C [10732/C03] | 14.7% | 7.3% |
| Cc1c(Br)ccc2c1C(=Cc1cc(C(C)C)c(Oc3ccccc3)c(C(C)C)c1)C(=O)N2 [10732/C04] | 12.8% | 3.8% |
| COc1ccc(C=C2C(=O)Nc3ccc(Br)c(C)c32)cc1C(C)(C)C [10732/C05] | 11.2% | -17.0% |
| Cc1c(Br)ccc2c1C(=Cc1ccc(OCc3ccccc3)c(C(C)(C)C)c1)C(=O)N2 [10732/C06] | 11.8% | 5.3% |
| COc1c(Br)cc(C=C2C(=O)Nc3ccc(Br)c(C)c32)cc1C(C)(C)C [10732/C07] | 15.4% | 4.3% |
| Cc1c(Br)ccc2c1C(=Cc1cc(Br)c(OCc3ccccc3)c(C(C)(C)C)c1)C(=O)N2 [10732/C08] | 7.6% | 17.9% |
| COc1c(Cl)cc(C=C2C(=O)Nc3ccc(Br)c(C)c32)cc1C(C)(C)C [10732/C09] | 8.0% | 15.4% |
| Cc1c(Br)ccc2c1C(=Cc1cc(Cl)c(OCc3ccccc3)c(C(C)(C)C)c1)C(=O)N2 [10732/C10] | 15.1% | 5.8% |
| COc1c(I)cc(C=C2C(=O)Nc3ccc(Br)c(C)c32)cc1C(C)(C)C [10732/C11] | 18.2% | 16.4% |
| CNS(=O)(=O)c1ccc2c(c1)C(=CC(c1cccs1)C(F)(F)F)C(=O)N2 (centres unmarked) [10732/D02] | 9.2% | -24.0% |
| CNS(=O)(=O)c1ccc2c(c1)C(=Cc1cc(C(C)C)c(OC)c(C(C)C)c1)C(=O)N2 [10732/D03] | 22.5% | 26.0% |
| CNS(=O)(=O)c1ccc2c(c1)C(=Cc1cc(C(C)C)c(Oc3ccccc3)c(C(C)C)c1)C(=O)N2 [10732/D04] | 24.6% | 50.7% |
| CNS(=O)(=O)c1ccc2c(c1)C(=Cc1ccc(OC)c(C(C)(C)C)c1)C(=O)N2 [10732/D05] | 15.7% | 4.3% |
| CNS(=O)(=O)c1ccc2c(c1)C(=Cc1ccc(OCc3ccccc3)c(C(C)(C)C)c1)C(=O)N2 [10732/D06] | 16.3% | 16.4% |
| CNS(=O)(=O)c1ccc2c(c1)C(=Cc1cc(Br)c(OC)c(C(C)(C)C)c1)C(=O)N2 [10732/D07] | 14.7% | -3.8% |
| CNS(=O)(=O)c1ccc2c(c1)C(=Cc1cc(Br)c(OCc3ccccc3)c(C(C)(C)C)c1)C(=O)N2 [10732/D08] | 33.3% | 30.5% |
| CNS(=O)(=O)c1ccc2c(c1)C(=Cc1cc(Cl)c(OC)c(C(C)(C)C)c1)C(=O)N2 [10732/D09] | 15.2% | 15.9% |
| CNS(=O)(=O)c1ccc2c(c1)C(=Cc1cc(Cl)c(OCc3ccccc3)c(C(C)(C)C)c1)C(=O)N2 [10732/D10] | 25.5% | 24.5% |
